Measured values taken from article PMC3832545 (PLoS ONE, 2013).

Key:
MC38 cells = test: MTT cell proliferation assay, MC38 cells; type: cell-based, mouse; settings: 24 h, 0.25% (v/v) serum, 0.001 to 1000 nM, three independent experiments with four replicates
Method: (§1) Effect of test compounds on proliferation was assessed with 3-(4,5-dimethylthiazol-2-yl)-2,5-diphenyl tetrazolium bromide (MTT) assays, essentially as described previously. In brief, MC38 cells were plated in 96-well plates (5,000 cells per well) in growth medium. […] Data for relative cell numbers from the three repeated experiments, each with four replicate samples per condition, were then used to fit dose-response curves using GraphPad Prism version 6.0 (GraphPad Software Inc., La Jolla, CA, USA). Cell proliferation experiments were done with MCF-7 cells as described for MC38 cells, except that 20,000 cells were plated per well. See Materials S1 and Figure S1 for detailed supplementary information regarding cell proliferation experiments.
(§2) In initial tests the association between number of cells and absorbance at 570 nm measured in an MTT assay was examined after incubation of MC38 cells with MTT for 3 h, 3 h after plating different number of cells per well, i.e., the total incubation period was 6 h. As expected there was a highly linear relationship between absolute number of cells and the measured absorbance (Figure S1). […] After incubation for 1 day cells were rinsed in PBS (room temperature) and then starvation medium was added. […] Control samples were treated with starvation medium only. After treatment for 21 h, 10 µl stock solution of MTT dissolved in PBS (5.0 mg/ml) was added to each well, and incubation was continued for 3 h so treatment with test compounds in total lasted 24 h. At the end of the treatment period medium with test compounds was removed and formazan crystals were suspended by adding 100 µl 0.04 M HCl dissolved in isopropanol to each well and absorbance was thereafter read at 570 nm using a Emax PC plate reader (Molecular Devices LLC, Sunnyvale, CA, USA). Each treatment was done with four replicate samples and three independent experiments were performed. In each experiment the absorbance was normalized to the mean absorbance in the untreated control samples. […]

MCF-7 cells = test: MTT cell proliferation assay, MCF-7 cells; type: cell-based, human; settings: 24 h, 0.1% (v/v) serum, 0.001 to 1000 nM, three independent experiments with four replicates
Method: as §1, §2

[1] = Plasma concentrations (pharmacokinetics) after sc injection in DIO-mice; type: in vivo, mouse
Method: The animal experiments were performed as described recently. […] Animal care and treatments were conducted in accordance with established guidelines and protocols approved by the Lady Davis Institute (protocol # 5951) and McGill University's Animal Ethics Committee. Mice were housed one mouse per cage with ad libitum access to tap water and high- or low fat diet, respectively, throughout the studies. […] The size of the tumor allografts was measured three times per week and the volume calculated using the following formula: length × width^2 × 0.52. Based on the tumor volume data for each mouse, we calculated the area under the tumor growth curves (tumor growth AUC). At termination of the experiments, mice were anesthetized with isoflurane. Blood was collected by cardiac puncture and immediately after euthanasia by cervical dislocation, samples of the liver, colon, gastrocnemius muscle and the MC38 cell tumor allografts were dissected out and snap-frozen in liquid nitrogen for later preparation of tissue lysate. Before experiments were initiated, the systemic levels of mouse insulin were measured using a Rat/Mouse Insulin ELISA kit (Millipore Corp., Bilerica, MA, USA), according to manufacturer's instructions. […] Mouse C-peptide was assayed with Rat/Mouse C-peptide 2 ELISA kit (Millipore), according to manufacturer's instructions. […] At termination of experiments whole blood was collected in EDTA-coated tubes (BD Biosciences) by cardiac puncture. […] Mouse C-peptide was assayed with Rat/Mouse C-peptide 2 ELISA kit (Millipore) according to manufacturer's instructions. […] The lower detection limit of the assay was 2 pM. […] Plate wells were coated with a mouse monoclonal anti-insulin antibody OXI005 (Novo Nordisk A/S) coupled to acceptor beads. […] Ten μl of this dilution were added to the wells. […] The lower detection limit of the assay was 233 pM.

[2] = Mouse C-peptide in plasma after sc injection in DIO-mice; type: in vivo; settings: 600 nmol/kg sc, P<0.05
Method: Before experiments were initiated, the systemic levels of mouse insulin were measured using a Rat/Mouse Insulin ELISA kit (Millipore Corp., Bilerica, MA, USA), according to manufacturer’s instructions. […] Mouse C-peptide was assayed with Rat/Mouse C-peptide 2 ELISA kit (Millipore), according to manufacturer’s instructions. […] Insulin X10 was measured in mouse plasma using a wash-LOCI assay, as also described recently. See Materials S1 for detailed information regarding these assays.
At termination of experiments whole blood was collected in EDTA-coated tubes (BD Biosciences) by cardiac puncture. Blood plasma was isolated by centrifugation for 10 min at 1500 rpm and thereafter stored at -80 °C until analysis. Mouse C-peptide was assayed with Rat/Mouse C-peptide 2 ELISA kit (Millipore) according to manufacturer’s instructions. […] In initial tests the sensitivity and specificity of the assay in mouse plasma was confirmed. […] After incubation for another 30 min at 21-22 °C chemiluminescence was measured in an Envision plate reader (Perkin Elmer). […] Finally 10 µl of streptavidin coated donor beads were added, incubated as above and immediately after this chemiluminescence was measured using an Envision plate reader. […]

IGF-1 receptor (IGF-1R) = settings: ref [10], [11]; cited from earlier work
insulin receptor (IR) = settings: cited from earlier work
[3] = tested on: female Sprague Dawley rats; settings: rat, in vivo; cited from earlier work

| Substance | Ranking according to mitogenic potency (MTT assay) (MC38 cells) | Ranking according to mitogenic potency (MTT assay) (MCF-7 cells) | Plasma elimination half-life (t½) ([1]; mouse, in vivo, sc) | Plasma elimination half-life (t½) ([1]; DIO-mice, 600 nmol/kg sc, estimated from plasma concentrations […] min, 1 h and 6 h after injection) | Cmax (plasma) ([1]; DIO-mice, 600 nmol/kg sc, plasma, LOCI / wash-LOCI / ELISA) | Levels of C-peptide in plasma 0.5 h after treatment compared to >5 h [2] | Cmax relative to plasma concentrations of endogenous mouse insulin in hyperinsulinemic DIO-mice ([1]; mouse, in vivo, sc) | Time of maximal plasma concentration ([1]; mouse, in vivo, sc) | Increase of binding affinity to the IGF-1 receptor (vs human insulin) (IGF-1 receptor (IGF-1R)) | Increase of binding affinity to the insulin receptor (vs human insulin) (insulin receptor (IR); ref [10], [11]) | Off-rate from the IR compared to native human insulin (insulin receptor (IR); ref [12]) | Incidence of spontaneous mammary tumors [3] |
| --- | --- | --- | --- | --- | --- | --- | --- | --- | --- | --- | --- | --- |
| IGF-1: recombinant human IGF-1 (Increlex, IPSEN Pharma GmbH) | X10≥IGF-1>HI | IGF-1>X10>HI | approximately 70 min | – | – | – | – | – | – | – | – | – |
| human insulin [HI] | X10≥IGF-1>HI | IGF-1>X10>HI | – | approximately 30 min | approximately 1000 nM | significantly decreased | – | – | – | – | – | – |
| insulin analog B10Asp [X10] | X10≥IGF-1>HI | IGF-1>X10>HI | approximately 30 min | – | – | significantly decreased | approximately 1000 fold | 15 min | 3- to 5 fold | 2 fold | decreased off-rate | increased the incidence |
